Laboratory results as given in patent publication US5578496A, “Detection of autoantibodies associated with the disease myasthenia gravis” (Board of Regents, Baylor College of Medicine, priority 1994, dated 1996).
*1 amine or outer side, *2 acyl side, *3 side chain or, on linkers, in order; H or OH if unused. Bridges are numbered along the chain shown (N, C = ends). Where no end group is shown, it is not given here. mPEG = monomethoxypolyethylene glycol; Suc = O=C(CCC(=O)[*:2])[*:1]

Key:
peptide α125-148 = assay: Radioimmunoassay of anti-AChR antisera from pretreated mice: antibody binding to peptide α125-148; format: in vivo, C57/BL6 mice
Procedure: (§1) Six weeks old C57/BL6 mice were purchased from Charles River Breeding Laboratories (Wilmington, Mass.). Preimmune sera were obtained from the mice for use as controls in subsequent antibody binding assays. After 2-weeks rest, the mice were divided into three groups which received, at eleven, seven and three days before immunization with AChR, an intraperitoneal injection (5 μg in 25 μl of PBS [0.15M NaCl in 0.01M sodium phosphate buffer, pH 7.2]) of either the mPEG-(α125-148) conjugate (Group 1), mPEG-nonsense peptide conjugate (Group 2) or unaltered free peptide α125-148 (Group 3) (FIG. 5). Then, on day 0, the mice were immunized subcutaneously in one hind footpad and intramuscularly in the same side shoulder with 20 μg of Torpedo AChR in 100 μl emulsion containing equal volumes of complete Freund's adjuvant and PBS. Thirty days later, the mice were immunized with a similar dose of the receptor in the opposite footpad and shoulder. On the 37th day, test bleeds were obtained from the mice for determination of the antibody titers. Electrophysiological studies were performed on the 38th and 39th days. Finally, the mice were sacrificed on the 40th day and lymph node cells were obtained for T cell studies.
One mg of the synthetic peptide was dissolved in 50 μl dimethylformamide and then diluted with PBS to 25 μg/ml. A solution of Torpedo AChR in PBS was prepared to contain 2.5 μg/ml. Aliquots (50 μl/well) of the peptide or AChR solutions were added to a 96-well microtiter plate (Falcon Micro Test III flexible assay plate, Becton Dickinson, Oxcard, Calif.) and the plates were incubated at room temperature overnight. After washing 3 times with PBS, the plates were blocked with 0.25% bovine serum albumin (BSA [bovine serum albumin]) in PBS (50 μl/well) at 37° C. for 90 minutes. The plates were washed again 5 times with PBS and to each well was added 50 μl of the serum from AChR-immunized mice, pre-diluted with PBS containing 0.10% BSA, and the plates were covered and allowed to stand at room temperature overnight. After 5 washes with PBS, 50 μl of rabbit IgG antibodies (2.5 μg/ml) against mouse IgG and IgM (Accurate Chemical Scientific Corporation, Westbury, N.Y.) was added to each well and the plates were incubated at 37° C. for 3 hours. The plates were then washed 5 times with PBS and ^125 I-labeled protein A (2×10^5cpm in 50 μl of PBS-0.1% BSA) was added to each well. The plates were incubated for 3 hours at room temperature, after which they were washed and the wells were cut out and counted for bound radioactivity. Pre-immune serum samples, obtained from the mice prior to any experimental treatments, were used as controls to correct for non-specific binding.

lymph node cells (LNC) = assay: T cell proliferation assay of lymph node cells from AChR-primed mice; format: cell-based, C57/BL6 mice; details: LNC challenged with overlapping Torpedo AChR α chain peptides, α125-148 and AChR; compared with mPEG-Nonsense peptide group
Procedure: as §1, with “Thirty days later, the mice were immunized with a similar dose of the receptor in the opposite footpad and shoulder. On the 37th day, test bleeds were obtained from the mice for determination of the antibody titers. Electrophysiological studies were performed on the 38th and 39th days. Finally, the mice were sacrificed on the 40th day and lymph node cells were obtained for T cell studies.” left out
Lymph node cells (LNC) were harvested from the AChR-primed mice of each group ten or eleven days after the last AChR immunization. […] The number of viable cells was determined by vital staining with fluorescein diacetage. […] After incubation for 3 days at 37° C. in a humidified air/CO2 (19:1) atmosphere, the cultures were pulsed (18 hr) with 1 μCi/well [^3 H]-thymidine (Research Products International, Mount Prospect, Ill.) and then harvested on to glass microfiber filters (Whatman, Clinton, N.J.) for counting of radioactivity by liquid scintillation.

whole Torpedo AChR = assay: Radioimmunoassay of anti-AChR antisera from pretreated mice: antibody binding to whole AChR; format: in vivo, C57/BL6 mice; details: Group 1 compared to control groups; P>0.5
Procedure: as §1, with “Finally, the mice were sacrificed on the 40th day and lymph node cells were obtained for T cell studies.” left out
(§2) One mg of the synthetic peptide was dissolved in 50 μl dimethylformamide and then diluted with PBS to 25 μg/ml. […] The plates were incubated for 3 hours at room temperature, after which they were washed and the wells were cut out and counted for bound radioactivity. […]

peptide α45-60 = assay: Radioimmunoassay of anti-AChR antisera from pretreated mice: antibody binding to peptide α45-60; format: in vivo, C57/BL6 mice; details: Group 1 compared to control groups; P>0.1-0.5
Procedure: as §1, with “Finally, the mice were sacrificed on the 40th day and lymph node cells were obtained for T cell studies.” left out
as §2

[1] = system: experimental autoimmune myasthenia gravis (EAMG); assay: Electromyography (repetitive nerve stimulation) for electrophysiological EAMG after immunization with Torpedo AChR; format: in vivo, C57/BL6 mice
Procedure: Six weeks old C57/BL6 mice were purchased from Charles River Breeding Laboratories (Wilmington, Mass.). Preimmune sera were obtained from the mice for use as controls in subsequent antibody binding assays. […] Then, on day 0, the mice were immunized subcutaneously in one hind footpad and intramuscularly in the same side shoulder with 20 μg of Torpedo AChR in 100 μl emulsion containing equal volumes of complete Freund's adjuvant and PBS. Thirty days later, the mice were immunized with a similar dose of the receptor in the opposite footpad and shoulder. On the 37th day, test bleeds were obtained from the mice for determination of the antibody titers. Electrophysiological studies were performed on the 38th and 39th days. Finally, the mice were sacrificed on the 40th day and lymph node cells were obtained for T cell studies. To document the electrophysiological evidence of EAMG, amplitudes of serial muscle action potentials were measured by electromyography (EMG) during the repetitive stimulation of the nerve in immunized mice, using the Mystro EMG system (TECA Corporation). A pair of wire electrodes were surgically implanted, encircling the sciatic nerve, two days before EMG. The nerve was stimulated through the implanted electrodes by 3 Hz trains of supramaximal electric current with a duration of 200 microseconds. The corresponding muscle action potentials were recorded with an electrode subcutaneously inserted over the gastrocnemius muscle. A reference electrode was placed at the ankle. Ether inhalation was used during the surgical and recording procedures. […] Students' t-test was used to analyze the differences of amplitude changes between the two groups. A typical myasthenic response of a greater than 10% decrement was considered to constitute an electrophysiological evidence of EAMG. The frequency of electrophysiological EAMG was calculated in each group and analyzed by chi-square test.

peptide α182-198 = assay: Radioimmunoassay of anti-AChR antisera from pretreated mice: antibody binding to peptide α182-198; format: in vivo, C57/BL6 mice; details: Group 1 compared to control groups; P>0.1-0.5
Procedure: as §1, with “Finally, the mice were sacrificed on the 40th day and lymph node cells were obtained for T cell studies.” left out
as §2

[2] = 5 μg i.p. at 11, 7 and 3 days before immunization with Torpedo AChR, EMG on days 38-39

mPEG-(α125-148): monomethoxypolyethylene glycol coupled via succinyl to the N-terminal α-NH2 of Torpedo AChR peptide α125-148 (Group 1) ({mPEG-Suc}-KSYCEIIVTHFPFDQQNCTMKLGI; disulfide 4-18 (inferred); UniProt P02710 149-172, looked up, fragment)
antibody binding to peptide α125-148, mean net cpm ± standard deviation (peptide α125-148; anti-AChR antisera of individual mice, day 37 bleeds): 1414±1801 cpm
antibody binding to peptide α125-148, pooled antisera in serial dilutions (peptide α125-148; pooled serum of each group, various dilutions): consistently lower amounts of antibody binding
antibodies bound to peptide α125-148 in anti-AChR antisera (peptide α125-148; pretreatment prior to immunization with Torpedo AChR): significantly decreased
T cell proliferation profiles (lymph node cells (LNC)): did not show meaningful differences
antibodies against whole receptor (whole Torpedo AChR): no significant suppression
antibodies against peptide α45-60 (peptide α45-60): no significant suppression
mean amplitude change of muscle action potentials [1, 2]: -5.4%
mice showing a decremental response greater than 10% [1, 2]: 20%
effect on development of electrophysiological EAMG ([1]; prior administration, then immunization with AChR): suppresses development of electrophysiological EAMG but the suppression was incomplete
antibodies against peptide α182-198 (peptide α182-198): no significant suppression
